Test results published in publication PMC3369218 (Biochemistry, 2012).
Like-named read-outs stand apart in the source and are kept apart here.

Key:
WT DaCld = WT DaCld (Dechloromonas aromatica, UniProt Q47CX0); assay: Equilibrium binding of ligands, spectrophotometric titration, WT DaCld
DaCld(R183Q) = DaCld(R183Q) (Dechloromonas aromatica, UniProt Q47CX0, R217Q); assay: biochemical; type: binding
DaCld(R183K) = DaCld(R183K) (Dechloromonas aromatica, UniProt Q47CX0, R217K); assay: biochemical; type: binding
Sequence of DaCld(R183K) (Q47CX0 35-282 R217K): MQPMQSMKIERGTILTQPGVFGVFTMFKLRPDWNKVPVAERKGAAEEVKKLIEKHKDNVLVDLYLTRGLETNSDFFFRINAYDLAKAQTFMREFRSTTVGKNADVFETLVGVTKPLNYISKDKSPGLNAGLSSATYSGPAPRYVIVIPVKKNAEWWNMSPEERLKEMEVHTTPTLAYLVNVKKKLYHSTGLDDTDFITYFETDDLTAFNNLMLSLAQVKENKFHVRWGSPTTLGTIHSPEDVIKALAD

DaCld(R183A) = DaCld(R183A) (Dechloromonas aromatica, UniProt Q47CX0, R217A); assay: biochemical; type: binding
Sequence of DaCld(R183A) (Q47CX0 35-282 R217A): as the sequence (Q47CX0 35-282 R217K) above, with K183A counted along it

[1] = cited from earlier work

Sequence of WT DaCld (Q47CX0 32-282): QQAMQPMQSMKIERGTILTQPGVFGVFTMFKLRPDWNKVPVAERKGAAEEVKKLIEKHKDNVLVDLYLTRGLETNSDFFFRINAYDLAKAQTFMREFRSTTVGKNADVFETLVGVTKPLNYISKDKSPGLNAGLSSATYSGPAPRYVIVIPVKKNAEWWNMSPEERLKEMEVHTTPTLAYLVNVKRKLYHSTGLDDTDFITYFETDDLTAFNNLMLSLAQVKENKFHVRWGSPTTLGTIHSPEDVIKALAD
Sequence of DaCld(R183Q) (Q47CX0 35-282 R217Q): as the sequence (Q47CX0 35-282 R217K) above, with K183Q counted along it

[N-]=[N+]=[N-] [N3^–, azide]
Kd (WT DaCld; read-out: Maximal KD, pH 7): 8.3 ± 0.1 µM

c1c[nH]cn1 [imidazole]
Kd (DaCld(R183Q)): 27 ± 1 µM | pKa1 of pKD versus pH curve (DaCld(R183Q)): 6.7 ± 0.1 | Kd (DaCld(R183K)): 18 ± 1 µM | Kd (WT DaCld): 9.6 ± 0.3 µM | Kd (DaCld(R183A)): 21 ± 1 µM | pKa1 of pKD versus pH curve (DaCld(R183A)): 6.8 ± 0.1

Myoglobin
reduction potential [1]: 46 mV
